Test results reported in patent US7189851B2, “Condensed heterocyclic compounds as calcitonin agonists” (SmithKline Beecham Corporation, priority 2002, dated 2007).

Target: T1, human calcitonin-2 receptor (hCT2R) (Homo sapiens, UniProt P30988)
T1 construct: expressed in transfected cells; host or cells: Chinese hamster ovary (CHO) cells co-transfected with a 6CRE-luciferase reporter; receptor cDNA cloned from the MCF7 cell line
T1 sequence (P30988 25-474): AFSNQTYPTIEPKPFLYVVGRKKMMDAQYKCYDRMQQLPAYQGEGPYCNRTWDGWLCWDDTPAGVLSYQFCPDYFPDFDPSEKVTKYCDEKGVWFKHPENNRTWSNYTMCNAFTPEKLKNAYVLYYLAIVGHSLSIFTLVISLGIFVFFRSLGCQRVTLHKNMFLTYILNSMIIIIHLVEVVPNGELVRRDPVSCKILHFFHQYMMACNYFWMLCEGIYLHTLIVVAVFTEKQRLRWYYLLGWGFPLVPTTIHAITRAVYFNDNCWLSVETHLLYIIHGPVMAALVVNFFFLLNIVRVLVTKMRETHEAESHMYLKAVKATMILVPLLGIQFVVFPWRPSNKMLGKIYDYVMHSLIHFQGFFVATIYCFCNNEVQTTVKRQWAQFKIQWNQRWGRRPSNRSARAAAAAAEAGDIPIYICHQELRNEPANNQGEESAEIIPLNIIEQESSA
Assay: HCT2R CRE-luc reporter assay
Format: cell-based
Settings: agonist activity; CHO-6CRE-luciferase cells co-transfected with hCT2R
Experimental: The compounds of the present invention elicit important and measurable pharmacological responses. As is to be expected, the efficacy of any compound will vary depending upon the particular assay and the particular compound tested.
All recombinant cell line human calcitonin receptor assays were carried out with the human receptor corresponding to GeneBank Accession Number X69920, [See: Molecular Pharmacology 46 (2):246–255, 1994, Cloning and characterization of an abundant subtype of the human calcitonin receptor] cloned from the MCF7 cell line (American Type Tissue Collection, Manassas, Va., USA, Catalog # HTB-22). Human calcitonin receptor (hCT2R) was cloned as a HindIII fragment into plasmid BS SKII. Chinese hamster ovary cells were co-transfected with a 6CRE-luciferase reporter system and hCTR2. HEK cells were transfected with hCTR2.
CHO-6CRE-luciferase cells with or without co-expressed hCTR2 were grown in suspension in commercially available cell culture medium supplemented with 2 mM L-glutamine and 5% fetal bovine serum (FBS). Sixteen hours before each assay, cells were collected and resuspended at 1,000,000 cells/ml in media without FBS. Cells were cultured in spinner flasks at 37° C. in an atmosphere of 5% CO2. At the time of the assay, cells were pelleted by centrifugation and resuspended in media without FBS at a concentration of 250,000 cells/ml. The cell suspension was pipetted into black 96-well microtiter plates (25,000 cells/well) containing test compounds. After a four-hour incubation at 37° C., media was aspirated, followed by addition of 50 microliters of LucLite and PBS (1:1) containing 1 mM CaCl2 and 1 mM MgCl2. The plates were sealed and incubated for 20 minutes in the dark. Luminescent responses were measured using a Packard TopCount.
Structure activity studies were performed on CHO-6CRE-luciferase cells with or without co-transfected hCT2R. Forty-eight hours before each assay, cells were removed with trypsin and plated in 96-well microtiter plates at a concentration of 25–100,000 cells/well. Sixteen hours before each assay, FBS-containing media was removed and replaced with media without FBS. Compounds were added and incubated for four hours at 37° C. After incubation, media was aspirated and 50 microliters of LucLite in PBS (1:1) containing 1 mM CaCl2 and 1 mM MgCl2 were added to each well. Plates were sealed and incubated for 20 minutes in the dark before quantification of luminescence on a Packard TopCount.
Concentration-response curves were calculated and potencies were reported as the concentration of compounds producing half-maximal responses (EC50) or the negative log of the concentration of compounds producing half-maximal responses (pEC50).

EC50 [nM]	SMILES
100 to 1000	O=C(NCc1ccco1)c1ccc(-c2c(NC(=O)C3CC3)c(CCc3ccc(C(F)(F)F)cc3)nc3c2C(=O)N2CCC[C@@H]32)cc1 [Example 26, 4-((9aS)-3-[(Cyclopropylcarbonyl)amino]-5-oxo-2-{2-[4-(trifluoromethyl)phenyl]ethyl}-7,8,9,9a-tetrahydro-5H-pyrido[2,3-α]pyrrolizin-4-yl)-N-(2-furylmethyl)benzamide]
100 to 1000	CCOC(=O)c1c(CCc2ccc(C(F)(F)F)cc2)nc2c(c1-c1ccc(C(=O)NCCc3cnc[nH]3)cc1)C(=O)N1CCC[C@@H]21 [Example 42, Ethyl (9aS)-4-[4-({[2-(1H-imidazol-5-yl)ethyl]amino}carbonyl)phenyl]-5-oxo-2-{2-[4-(trifluoromethyl)phenyl]ethyl}-7,8,9,9a-tetrahydro-5H-pyrido[2,3-α]pyrrolizine-3-carboxylate]
≥ 1000	CCOC(=O)c1c(CCc2ccc(F)cc2)cc2c(c1-c1ccc(C(=O)OCc3ccccc3)cc1)C(=O)N1CCC[C@@H]21 [Example 48, Ethyl (9bS)-6-{4-[(benzyloxy)carbonyl]phenyl}-8-[2-(4-fluorophenyl)ethyl]-5-oxo-2,3,5,9b-tetrahydro-1H-pyrrolo[2.1-a]isoindole-7-carboxylate]
10 to 100	O=C(NC1CCc2ccccc21)c1ccc(-c2c(NC(=O)C(F)(F)F)c(Cc3ccc(F)cc3F)nc3c2C(=O)N2CCCC32)cc1 [Example 23, 4-{(9aS)-2-(2,4-difluorobenzyl)-5-oxo-3-[(trifluoroacetyl)amino]-7,8,9,9a-tetrahydro-5H-pyrido[2,3-α]pyrrolizin-4-yl}-N-[(1R)-2,3-dihydro-1H-inden-1-yl]benzamide]
100 to 1000	O=C(NCc1ccco1)c1ccc(-c2cc(CCc3ccc(C(F)(F)F)cc3)nc3c2C(=O)N2CCC[C@@H]32)cc1 [Example 14, 4-((9aS)-5-oxo-2-{2-[4-(trifluromethyl)phenyl]ethyl}-7,8,9,9a-tetrahydro-5H-pyrido[2,3-a]pyrrolizin-4-yl)-N-(2-furylmethyl)benzamide]
≥ 1000	O=C(N[C@@H]1CCc2ccccc21)c1ccc(-c2c3c(nc4c2C(=O)N2CCC[C@@H]42)CC(c2ccc(F)cc2)CC3=O)cc1 (stereo partly drawn) [Example 32, 4-[(3aS)-6-(4-Fluorophenyl)-8,10-dioxo-2,3,3a,5,6,7,8,10-octahydro-1H-pyrrolizino[1,2-b]quinolin-9-yl]-N-[(1R)-2,3-dihydro-1H-inden-1-yl]benzamide]
100 to 1000	CCC(=O)Nc1c(CCc2ccc(C(F)(F)F)cc2)nc2c(c1-c1ccc(C(=O)NCc3ccco3)cc1)C(=O)N1CCC[C@@H]21 [Example 25, 4-((9aS)-3-[(Ethylcarbonyl)amino]-5-oxo-2-{2-[4-(trifluoromethyl)phenyl]ethyl}-7,8,9,9a-tetrahydro-5H-pyrido[2,3-α]pyrrolizin-4-yl)-N-(2-furylmethyl)benzamide]
≤ 10	O=C(NCc1ccco1)c1ccc(-c2c(C(=O)c3ccco3)c(CCc3ccc(F)cc3)nc3c2C(=O)N2CCC[C@@H]32)cc1 [Example 31, 4-[(9aS)-2-[2-(4-fluorophenyl)ethyl]-3-(2-furoyl)-5-oxo-7,8,9,9a-tetrahydro-5H-pyrido[2,3-α]pyrrolizin-4-yl]-N-(2-furylmethyl)benzamide]
10 to 100	CCOC(=O)c1c(Cc2ccc(F)cc2F)nc2c(c1-c1ccc(C(=O)NN3CCc4ccccc43)cc1)C(=O)N1CCC[C@@H]21 [Example 45, Ethyl (9aS)-2-(2,4-difluorobenzyl)-4-{4-[(2,3-dihydro-1H-indol-1-ylamino)carbonyl]phenyl}-5-oxo-7,8,9,9a-tetrahydro-5H-pyrido[2,3-α]pyrrolizine-3-carboxylate]
≤ 10	CCOC(=O)c1c(CCc2ccc(F)cc2)nc2c(c1-c1ccc(C(=O)NCc3ccco3)s1)c(=O)n1n2CCC1 [Example 9, Ethyl 2-[2-(4-fluorophenyl)ethyl]-4-(5-{[(2-furylmethyl)amino]carbonyl}-2-thienyl)-5-oxo-8,9-dihydro-5H,7H-pyrazolo[1′,2′:1,2]pyrazolo[3,4-b]pyridine-3-carboxyl]
